Measurements published in patent US20230192700A1, “PYRAZOLOPYRAZINES ACTING ON CANCERS VIA INHIBITION OF CDK12” (Bayer Aktiengesellschaft, priority 2020, published 2023).

Key:
CDK9/CyclinT1 = molecular target: T1, CDK9/CyclinT1 (Homo sapiens, UniProt P50750); experiment: CDK9/CycT1 high ATP kinase assay (TR-FRET); format: biochemical; details: 2 mM ATP (high ATP); median; read-out: CDK9/CyclinT1, 2 mM ATP (high ATP) IC50 - [mol/l] (median)
T1 construct: Recombinant full-length His-tagged human CDK9 and CycT1; His-tag; purchased Life Technologies PV4131; host or cells: insect cells
T1 sequence (P50750 whole entry): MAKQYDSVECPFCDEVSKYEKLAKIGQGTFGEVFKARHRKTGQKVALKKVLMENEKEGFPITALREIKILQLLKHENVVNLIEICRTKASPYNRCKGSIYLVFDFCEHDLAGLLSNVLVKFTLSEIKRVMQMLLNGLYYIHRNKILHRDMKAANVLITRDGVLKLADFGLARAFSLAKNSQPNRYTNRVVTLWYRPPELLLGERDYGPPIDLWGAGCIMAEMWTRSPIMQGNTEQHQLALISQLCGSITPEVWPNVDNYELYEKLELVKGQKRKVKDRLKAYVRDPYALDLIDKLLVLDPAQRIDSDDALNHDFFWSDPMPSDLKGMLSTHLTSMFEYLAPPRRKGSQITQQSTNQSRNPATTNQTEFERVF
T1 sequence (O60563 whole entry partner): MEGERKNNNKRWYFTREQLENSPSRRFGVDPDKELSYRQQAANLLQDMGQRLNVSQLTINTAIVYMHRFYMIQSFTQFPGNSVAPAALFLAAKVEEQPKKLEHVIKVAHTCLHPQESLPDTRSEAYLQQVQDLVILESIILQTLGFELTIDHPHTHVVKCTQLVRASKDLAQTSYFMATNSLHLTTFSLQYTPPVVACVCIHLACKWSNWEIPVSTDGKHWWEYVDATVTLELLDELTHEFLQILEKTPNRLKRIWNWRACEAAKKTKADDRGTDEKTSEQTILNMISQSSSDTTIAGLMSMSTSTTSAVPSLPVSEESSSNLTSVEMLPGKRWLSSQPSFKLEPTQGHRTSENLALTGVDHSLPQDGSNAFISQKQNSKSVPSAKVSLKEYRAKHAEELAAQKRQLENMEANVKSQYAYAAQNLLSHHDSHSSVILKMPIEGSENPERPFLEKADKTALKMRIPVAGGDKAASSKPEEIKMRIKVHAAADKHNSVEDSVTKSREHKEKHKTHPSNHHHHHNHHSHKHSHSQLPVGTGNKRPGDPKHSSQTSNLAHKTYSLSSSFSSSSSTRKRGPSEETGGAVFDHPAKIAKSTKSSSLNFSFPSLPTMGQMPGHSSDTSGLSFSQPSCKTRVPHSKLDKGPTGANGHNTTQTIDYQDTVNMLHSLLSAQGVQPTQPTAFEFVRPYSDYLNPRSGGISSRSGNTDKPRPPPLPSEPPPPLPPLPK
Description: 2.5 CDK9/CycT1 High ATP Kinase Assay
CDK9/CycT1 -inhibitory activity of compounds of the present invention at a high ATP concentration after preincubation of enzyme and test compounds was quantified employing the CDK9/CycT1 TR-FRET assay as described in the following paragraphs.
Recombinant full-length His-tagged human CDK9 and CycT1, expressed in insect cells and purified by Ni-NTA affinity chromatography, were purchased from Life Technologies (Cat. No PV4131). As substrate for the kinase reaction biotinylated peptide biotin-Ttds-YISPLKSPYKISEG (C-terminus in amide form) was used which can be purchased e.g. form the company JERINI peptide technologies (Berlin, Germany).
For the assay 50 nanoL of a 100 fold concentrated solution of the test compound in DMSO was pipetted into either a black low volume 384 well microtiter plate or a black 1536 well microtiter plate (both Greiner Bio-One, Frickenhausen, Germany), 2 microL of a solution of CDK9/CycT1 in aqueous assay buffer [50 millimol/L Tris/HCl pH 8.0, 10 millimol/L MgCl2, 1.0 millimol/L dithiothreitol, 0.1 millimol/L sodium ortho-vanadate, 0.01% (v/v) Nonidet-P40 (Sigma)] were added and the mixture was incubated for 15 min at 22° C. to allow pre-binding of the test compounds to the enzyme before the start of the kinase reaction. Then the kinase reaction was started by the addition of 3 microL of a solution of adenosine-tri-phosphate (ATP, 3.3 millimol/L=>final conc. in the 5 microL assay volume is 2 millimol/L) and substrate (1.25 micromol/L =>final conc. in the 5 microL assay volume is 0.75 micromol/L) in assay buffer and the resulting mixture was incubated for a reaction time of 25 min at 22° C. The concentration of CDK9/CycT1 was adjusted depending of the activity of the enzyme lot and was chosen appropriate to have the assay in the linear range, typical concentrations were in the range of 0.5 microg/mL. The reaction was stopped by the addition of 3 microL of a solution of TR-FRET detection reagents (0.33 micromol/L streptavidine-XL665 [Cisbio Bioassays, Codolet, France] and 1.67 nanomol/L anti-RB(pSer807/pSer811)-antibody from BD Pharmingen [#558389] and 2 nanomol/L LANCE EU-W1024 labeled anti-mouse IgG antibody [Perkin-Elmer, product no. AD0077]) in an aqueous EDTA-solution (167 millimol/L EDTA, 0.2% (w/v) bovine serum albumin in 100 millimol/L HEPES pH 7.5).
The resulting mixture was incubated 1 h at 22° C. to allow the formation of complex between the phosphorylated biotinylated peptide and the detection reagents. Subsequently the amount of phosphorylated substrate was evaluated by measurement of the resonance energy transfer from the Eu-chelate to the streptavidine-XL. Therefore, the fluorescence emissions at 620 nm and 665 nm after excitation at 350 nm was measured in a TR-FRET reader, e.g. a Pherastar (BMG Labtechnologies, Offenburg, Germany) or a Viewlux (Perkin-Elmer). The ratio of the emissions at 665 nm and at […] was taken as the measure for the amount of phosphorylated substrate. The data were normalised (enzyme reaction without inhibitor=0% inhibition, all other assay components but no enzyme=100% inhibition).

CDK12 = molecular target: T2, CDK12 (Homo sapiens, UniProt Q9NYV4); experiment: CDK12 nuclear protein level: immunofluorescence/high content analysis in CAL-120 cells; format: cell-based; details: for DC50: CAL-120 cells, 24 h, nuclear CDK12 staining intensity, median, read-out: CDK12 degradation IF DC50 - [mol/l] (median); for (IC50 CDK12 high ATP) to (Degradation DC50 CDK12) ratio: ratio of IC50 CDK12 hATP (2 mM ATP) to DC50 CDK12 (IF, CAL-120)
T2 construct: endogenous in cells; host or cells: CAL-120 human breast cancer cells (DSMZ ACC 459)
T2 sequence (Q9NYV4 whole entry): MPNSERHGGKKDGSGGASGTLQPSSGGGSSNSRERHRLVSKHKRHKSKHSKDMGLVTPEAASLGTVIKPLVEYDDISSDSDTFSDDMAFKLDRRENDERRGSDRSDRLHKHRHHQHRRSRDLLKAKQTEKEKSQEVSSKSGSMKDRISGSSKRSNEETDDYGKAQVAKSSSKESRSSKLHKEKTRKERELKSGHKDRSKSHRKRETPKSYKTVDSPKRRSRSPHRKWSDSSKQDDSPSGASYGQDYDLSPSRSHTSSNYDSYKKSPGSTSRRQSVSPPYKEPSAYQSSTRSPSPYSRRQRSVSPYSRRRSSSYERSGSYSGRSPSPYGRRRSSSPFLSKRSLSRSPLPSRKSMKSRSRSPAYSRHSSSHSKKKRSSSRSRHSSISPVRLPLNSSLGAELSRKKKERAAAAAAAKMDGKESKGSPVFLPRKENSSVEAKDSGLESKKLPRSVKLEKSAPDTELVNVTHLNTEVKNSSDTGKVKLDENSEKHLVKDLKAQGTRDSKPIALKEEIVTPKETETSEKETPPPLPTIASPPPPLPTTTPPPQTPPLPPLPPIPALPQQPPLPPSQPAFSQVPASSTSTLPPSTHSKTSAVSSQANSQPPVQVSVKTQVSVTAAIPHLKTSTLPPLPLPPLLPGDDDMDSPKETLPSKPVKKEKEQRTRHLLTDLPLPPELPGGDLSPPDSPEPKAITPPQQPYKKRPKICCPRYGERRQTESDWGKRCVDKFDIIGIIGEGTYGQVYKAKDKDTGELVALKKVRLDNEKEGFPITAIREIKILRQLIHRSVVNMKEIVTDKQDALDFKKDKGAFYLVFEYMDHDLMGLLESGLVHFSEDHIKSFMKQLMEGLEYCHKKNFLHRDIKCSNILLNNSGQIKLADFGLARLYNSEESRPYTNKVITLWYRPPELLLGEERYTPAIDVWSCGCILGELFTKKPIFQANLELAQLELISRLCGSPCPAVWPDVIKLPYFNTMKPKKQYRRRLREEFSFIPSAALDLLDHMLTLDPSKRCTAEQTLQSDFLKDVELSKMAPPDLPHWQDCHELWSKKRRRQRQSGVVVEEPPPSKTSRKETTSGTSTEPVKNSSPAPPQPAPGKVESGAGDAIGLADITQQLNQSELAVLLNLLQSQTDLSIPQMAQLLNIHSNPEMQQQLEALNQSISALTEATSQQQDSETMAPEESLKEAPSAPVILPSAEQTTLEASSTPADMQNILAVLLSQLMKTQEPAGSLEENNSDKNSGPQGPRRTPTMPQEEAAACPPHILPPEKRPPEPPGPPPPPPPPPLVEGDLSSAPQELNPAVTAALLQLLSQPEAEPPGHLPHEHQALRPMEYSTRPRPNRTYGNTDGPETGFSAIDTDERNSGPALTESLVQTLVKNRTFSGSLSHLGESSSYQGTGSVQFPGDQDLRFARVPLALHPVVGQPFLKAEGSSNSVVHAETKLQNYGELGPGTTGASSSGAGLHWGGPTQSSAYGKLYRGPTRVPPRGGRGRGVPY
T2 sequence (O75909 whole entry partner): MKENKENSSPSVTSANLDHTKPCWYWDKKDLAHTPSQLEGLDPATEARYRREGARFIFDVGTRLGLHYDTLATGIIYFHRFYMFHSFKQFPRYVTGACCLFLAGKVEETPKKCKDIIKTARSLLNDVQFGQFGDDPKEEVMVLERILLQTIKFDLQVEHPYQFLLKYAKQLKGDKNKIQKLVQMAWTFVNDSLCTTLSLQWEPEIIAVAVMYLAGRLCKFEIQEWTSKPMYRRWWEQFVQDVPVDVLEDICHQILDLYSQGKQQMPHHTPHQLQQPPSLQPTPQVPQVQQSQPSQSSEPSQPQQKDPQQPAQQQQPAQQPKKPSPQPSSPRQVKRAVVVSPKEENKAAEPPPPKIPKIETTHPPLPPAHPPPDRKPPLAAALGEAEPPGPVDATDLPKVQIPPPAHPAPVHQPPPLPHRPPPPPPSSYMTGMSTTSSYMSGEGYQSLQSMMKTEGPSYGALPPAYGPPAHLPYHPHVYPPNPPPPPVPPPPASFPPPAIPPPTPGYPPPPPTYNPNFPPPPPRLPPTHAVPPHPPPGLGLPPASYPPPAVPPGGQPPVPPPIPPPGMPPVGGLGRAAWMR
Method in brief: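 Cells were exposed to compounds in dose-response for 24 h at 37 °C, then PFA-fixed, immunostained for CDK12 and counterstained with Hoechst before confocal imaging. Nuclear CDK12 intensity was normalized to DMSO and control. DC50 is the concentration giving 50% reduction of nuclear staining.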

CYCLIN K = molecular target: T3, CYCLIN K (Homo sapiens, UniProt O75909); experiment: CYCLIN K nuclear protein level: immunofluorescence/high content analysis in CAL-120 cells; format: cell-based; details: 24 h, nuclear CCNK staining intensity, median, read-out: CYCLIN K degradation IF, DC50- [mol/l] (median)
T3 construct: endogenous in cells; host or cells: CAL-120 human breast cancer cells (DSMZ ACC 459)
T3 sequence (O75909 whole entry): as the sequence (O75909 whole entry partner) above
T3 sequence (Q9NYV4 whole entry partner): as the sequence (Q9NYV4 whole entry) above
Description: 7. CYCLIN K Nuclear Protein Level: Immunofluorescence/High Content Analysis
In the context of the present invention, the term “DC50 Cyclin K” refers to the DC50 values obtained according to the assay described in this section (7) herein below, i.e. the DC50 values for the degradation of Cyclin K.
CAL-120 human breast cancer cells (DSMZ ACC 459) are seeded in 1536-well microtiter plates (800 cells per well) containing 50 nanoL of compounds in Dose-Response. Control wells received DMSO or Reference Example 1. Plates are then incubated for 24 h at 37° C. in an humidified incubator and fixed with 4% PFA for 10 min. Then immunofluorescence (IF) against CYCLIN K (ThermoFisher Scientific CCNK Antibody # PA5-85020, rabbit, 1:200 dilution) is performed using standard IF protocols. Cells are then stained with Hoechst 33342 (Life Technologies, H-1399, 0.1 microg/mL) and imaged on an automated confocal microscopy system (e.g. Perkin Elmer Opera Phenix). Nuclear and cytoplasmic intensity as well as the nuclear/cytoplasmic intensity ratio is determined by automated image analysis using custom generated scripts (MetaXpress). Data is then transferred to Genedata Screener software, normalized to DMSO and control and DC50 values (degrading concentration to achieve 50% reduction of nuclear CCNK staining intensity relative to controls) are reported.

Row | Compound | IC50 (CDK9/CyclinT1) [nM] | DC50 (CDK12) [nM] | DC50 (CYCLIN K) [nM] | (IC50 CDK12 high ATP) to (Degradation DC50 CDK12) ratio (CDK12)
1 | O[C@H]1CC[C@H](n2nc(NCc3nc4ccccc4[nH]3)c3ncc(C4CC4)nc32)CC1 [Example 50, trans-4-(3-{[(1H-benzimidazol-2-yl)methyl]amino}-6-cyclopropyl-1H-pyrazolo[3,4-b]pyrazin-1-yl)cyclohexan-1-ol] | > 20000 | 3.15 | 3.27 | –
2 | CN1CCC(n2nc(NCc3nc4cc(F)ccc4[nH]3)c3ncc(C4CC4)nc32)CC1 [Example 4, 6-cyclopropyl-N-[(5-fluoro-1H-benzimidazol-2-yl)methyl]-1-(1-methylpiperidin-4-yl)-1H-pyrazolo[3,4-b]pyrazin-3-amine] | > 20000 | 4.3 | 0.914 | –
3 | c1ccc2[nH]c(CNc3nn(C4COC4)c4nc(C5CC5)cnc34)nc2c1 [Example 55, N-[(1H-benzimidazol-2-yl)methyl]-6-cyclopropyl-1-(oxetan-3-yl)-1H-pyrazolo[3,4-b]pyrazin-3-amine] | > 20000 | 46.9 | 12.5 | –
4 | c1ccc2[nH]c(CNc3nn(C4C[C@H]5CC[C@@H](C4)O5)c4nc(C5CC5)cnc34)nc2c1 (stereo partly drawn) [Example 45, exo/endo-N-[(1H-benzimidazol-2-yl)methyl]-6-cyclopropyl-1-(8-oxabicyclo[3.2.1]octan-3-yl)-1H-pyrazolo[3,4-b]pyrazin-3-amine] | > 20000 | 8.11 | 2.29 | –
5 | Fc1ccc2[nH]c(CNc3nn(C4CCOCC4)c4nc(C5CC5)cnc34)nc2c1 [Example 53, 6-cyclopropyl-N-[(5-fluoro-1H-benzimidazol-2-yl)methyl]-1-(oxan-4-yl)-1H-pyrazolo[3,4-b]pyrazin-3-amine] | > 20000 | 32 | 6.41 | –
6 | CC1(C)CC(n2nc(NCc3nc4ccccc4[nH]3)c3ncc(C4CC4)nc32)CC(C)(C)O1 [Example 52, N-[(1H-benzimidazol-2-yl)methyl]-6-cyclopropyl-1-(2,2,6,6-tetramethyloxan-4-yl)-1H-pyrazolo[3,4-b]pyrazin-3-amine] | > 20000 | 49.3 | 92.6 | –
7 | O[C@H]1C[C@H](n2nc(NCc3nc4ccccc4[nH]3)c3ncc(C4CC4)nc32)C1 [Example 43, trans-3-(3-{[(1H-benzimidazol-2-yl)methyl]amino}-6-cyclopropyl-1H-pyrazolo[3,4-b]pyrazin-1-yl)cyclobutan-1-ol] | > 20000 | 9.53 | 4.79 | –
8 | c1ccc2[nH]c(CNc3nn(C4CCOCC4)c4nc(C5CC5)cnc34)nc2c1 [Example 16, N-[(1H-benzimidazol-2-yl)methyl]-6-cyclopropyl-1-(oxan-4-yl)-1H-pyrazolo[3,4-b]pyrazin-3-amine] | > 20000 | 84 | > 677 | >238
9 | OC[C@H]1C[C@@H](n2nc(NCc3nc4ccccc4[nH]3)c3ncc(C4CC4)nc32)C1 [Example 47, [cis-3-(3-{[(1H-benzimidazol-2-yl)methyl]amino}-6-cyclopropyl-1H-pyrazolo[3,4-b]pyrazin-1-yl)cyclobutyl]methanol] | > 20000 | 22.8 | 6.29 | –
10 | CC1CC(n2nc(NCc3nc4ccccc4[nH]3)c3ncc(C4CC4)nc32)CCO1 (racemic) [Example 44, (±)-cis/trans-N-[(1H-benzimidazol-2-yl)methyl]-6-cyclopropyl-1-(2-methyloxan-4-yl)-1H-pyrazolo[3,4-b]pyrazin-3-amine] | > 20000 | 34.9 | 13.5 | –
11 | COCCn1nc(NCc2nc3ccccc3[nH]2)c2ncc(C3CC3)nc21 [Example 65, N-[(1H-benzimidazol-2-yl)methyl]-6-cyclopropyl-1-(2-methoxyethyl)-1H-pyrazolo[3,4-b]pyrazin-3-amine] | > 20000 | 20.5 | 37.4 | –
12 | c1ccc2[nH]c(CNc3nn(C4CC5(COC5)C4)c4nc(C5CC5)cnc34)nc2c1 [Example 54, N-[(1H-benzimidazol-2-yl)methyl]-6-cyclopropyl-1-(2-oxaspiro[3.3]heptan-6-yl)-1H-pyrazolo[3,4-b]pyrazin-3-amine] | > 20000 | 13.1 | 3.31 | –
13 | OC[C@H]1C[C@H](n2nc(NCc3nc4ccccc4[nH]3)c3ncc(C4CC4)nc32)C1 [Example 46, [trans-3-(3-{[(1H-benzimidazol-2-yl)methyl]amino}-6-cyclopropyl-1H-pyrazolo[3,4-b]pyrazin-1-yl)cyclobutyl]methanol] | > 20000 | 13.8 | 4.87 | –
14 | O[C@H]1CC[C@H](n2nc(NCc3nc4cc(F)ccc4[nH]3)c3ncc(C4CC4)nc32)CC1 [Example 56, trans-4-(6-cyclopropyl-3-{[(5-fluoro-1H-benzimidazol-2-yl)methyl]amino}-1H-pyrazolo[3,4-b]pyrazin-1-yl)cyclohexan-1-ol] | > 20000 | 7.11 | 1.28 | –
15 | CN1CCC(n2nc(NCc3nc4c(C(F)(F)F)cccc4[nH]3)c3ncc(C4CC4)nc32)CC1 [Example 7, 6-cyclopropyl-1-(1-methylpiperidin-4-yl)-N-{[4-(trifluoromethyl)-1H-benzimidazol-2-yl]methyl}-1H-pyrazolo[3,4-b]pyrazin-3-amine] | > 20000 | 14.4 | 2.62 | –
16 | CN1CCC(n2nc(NCc3nc4cc(C(F)(F)F)ccc4[nH]3)c3ncc(C4CC4)nc32)CC1 [Example 25, 6-cyclopropyl-1-(1-methylpiperidin-4-yl)-N-{[5-(trifluoromethyl)-1H-benzimidazol-2-yl]methyl}-1H-pyrazolo[3,4-b]pyrazin-3-amine] | > 20000 | 8.43 | 0.543 | 2193
17 | CC(CCN(C)C)n1nc(NCc2nc3ccccc3[nH]2)c2ncc(C3CC3)nc21 (racemic) [Example 62, (±)-N-[(1H-benzimidazol-2-yl)methyl]-6-cyclopropyl-1-[4-(dimethylamino)butan-2-yl]-1H-pyrazolo[3,4-b]pyrazin-3-amine] | > 20000 | 676 | – | –
